Source: EP1506767A1, “Use of a carbonylated amine for stimulating hairgrowth and/or for slowing down their loss” (L'OREAL, priority 2003, dated 2005)

Assays:
canaux calcium [1] = assay: Calcium flux inhibition (IC50Ca2+) on HDFa skin fibroblast cells; assay type: cell-based; settings: concentration inhibiting 50 % of Ca2+ release, read-out: IC50Ca2+ Sur cellules issues de fibroblastes de la peau HDFa
Excerpt: Par ailleurs, le demandeur a trouvé que les amines de formule (I) et en particulier de formule (II) sont des inhibiteurs de canaux calcium (ou de flux calcique) comme le vérapamil ou l'alvérine. Or, les inhibiteurs de canaux sont connus comme actifs dans le traitement de la chute des cheveux et sur leur effet bénéfique sur la microcirculation (confère description ci-dessus).
(§1) Pour qu'une substance soit reconnue comme un inhibiteur des canaux calcium, elle doit pouvoir diminuer la concentration intracellulaire en calcium ou diminuer la liaison du calcium aux protéines intracellulaires comme par exemple la calmoduline, tel que cela est notamment décrit par Galizzi, J. P. et al., J. Biol. Chem. 1987, 262 p 6947; par Y. Okamiya et al., Eur. J. Pharmacol. 1991, 205, p 49; par J. A. Wagner et al., J. Neurosci. 1988, 8, p 3354; par H. R. Lee et al., Life Sci. 1984, 35, p 721; par Schoemaker H. et Lauger S. Eur. J. Pharmacol. 1985, 111, p 273 ou encore I. J. Reynolds et al., J. Pharmacol. Exp. Ther. 1986, 237, p 731.
Selon le protocole indiqué dans ces documents, le demandeur a déterminé l'IC50Ca2+ d'inhibition de flux calcique des composés (3), (4), (6) et (7), en comparaison avec le vérapamil; les résultats sont donnés dans le tableau ci-après. IC50Ca2+ représente la concentration inhibitrice de 50 % de libération de Ca^2+.

[2] = tested on: coculture nerfs/muscles (cellules musculaires striées humaines); assay: Inhibition of muscle fibre contractions in a nerve/muscle coculture model; assay type: cell-based, humaines; rat; settings: 10, 50, 100 µM; 60 s incubation; three muscle fibres; triplicate
Description: La molécule de l'exemple 1 a été testée à différentes concentrations, à savoir 10, 50 et 100 µM, sur un modèle de coculture nerfs/muscles, qui permet de recréer un arc moteur en innervant des cellules musculaires striées humaines avec des explants de moelle épinière et de ganglions rachidiens d'embryons de rat.
Ce test est prédictif d'un effet inhibiteur des contractions des fibres musculaires.
Des cellules musculaires humaines, issues de prélèvements de muscles striés de donneurs sains, sont ensemencées dans des puits de 1,8 cm^2 de section (boîtes de culture de 24 puits). Après 10 jours de culture, ces cellules forment une monocouche et fusionnent. A ce stade, des explants de moelle épinière d'embryons de rat de 13 jours contenant les ganglions rachidiens sont déposés sur la culture.
La croissance des neurites est visible en dehors de l'explant de moelle épinière après un jour de culture. Les premières contractions des fibres musculaires sont observées après 5 à 6 jours de coculture et après 3 semaines, toutes les fibres musculaires au voisinage des explants se contractent.
Les cocultures sont utilisées après 21 jours, quand les fibres musculaires sont striées et possèdent des jonctions neuromusculaires différenciées matures. […]

canaux calcium [3] = assay: Calcium flux inhibition (IC50Ca2+) on SK-N-SH nerve cells; assay type: cell-based; settings: concentration inhibiting 50 % of Ca2+ release, read-out: IC50Ca2+ Sur cellules nerveuses SK-N-SH
Excerpt: as §1, with “Par ailleurs, le demandeur a trouvé que les amines de formule (I) et en particulier de formule (II) sont des inhibiteurs de canaux calcium (ou de flux calcique) comme […] ou […]. Or, les inhibiteurs de canaux sont connus comme actifs dans le traitement de la chute des cheveux et sur leur effet bénéfique sur la microcirculation (confère description ci-dessus). Pour” for “Pour”, “[…].” for “p 49; par J. A.”, “[…].” for “p 3354; par H. R.”, “731. Selon le protocole indiqué dans ces documents, […]'inhibition de flux calcique des composés (3), (4), (6) et (7), en comparaison […] sont donnés dans le tableau ci-après.” for “731.”

Row | SMILES | IC50 (canaux calcium [1]) [µM] | contractions des fibres musculaires [2] | IC50 (canaux calcium [3]) [µM]
1 | CCCCCC(=O)CCN(CC)CCCc1ccccc1 [compound 4, 1-(N-éthyl, (3-phényl-)propylamino) octan-3-one] | 30 | bloque les contractions | 18
2 | COC(=O)C1=C(C)NC(C)=C(C(=O)OC)C1c1ccccc1[N+](=O)[O-] [nifédipine, reference compound] | – | – | 29
3 | CCCCCC(=O)CCN(CC)Cc1ccccc1 [compound 7] | 18 | – | 17
4 | COc1ccc([C@@H]2Sc3ccccc3N(CCN(C)C)C(=O)[C@@H]2OC(C)=O)cc1 [diltiazem, reference compound] | – | – | > 45
5 | CCN(CCCc1ccccc1)CCCc1ccccc1 [alvérine, reference compound] | – | – | 30
6 | CCCCCC(=O)CCN(CCCc1ccccc1)CCC(=O)CCCCC [compound 3] | 18 | – | 7
7 | CCCCCC(=O)CCN(CC)CCc1ccc(OC)c(OC)c1 [compound 6] | 22 | – | 32
